Measured values reported in ChEMBL document CHEMBL3580555, “Design, Synthesis, and Biological Evaluation of Novel Imidazo[1,2-a]pyridine Derivatives as Potent c-Met Inhibitors” (ACS Med Chem Lett, 2015).
pIC50: −log10 of the molar value. The source made the active and inactive calls. The rule behind the calls is not given here.

What was measured:
Liver microsome [1] = test: Drug metabolism in Sprague-Dawley rat liver microsomes assessed as 2-Fluoro-4-(8-fluoro-3-(hydroxy(quinolin-6-yl)methyl)imidazo[1,2-a]pyridin-6-yl)-N-methylbenzamide metabolite formation after 60 mins by UPLC/Q-TOF MS/MS analysis; assay type: ADME; conditions: 1 h
Liver microsome [2] = test: Drug metabolism in beagle dog liver microsomes assessed as 2-Fluoro-4-(8-fluoro-3-(hydroxy(quinolin-6-yl)methyl)imidazo[1,2-a]pyridin-6-yl)-N-methylbenzamide metabolite formation after 60 mins by UPLC/Q-TOF MS/MS analysis; assay type: ADME, Canis lupus familiaris; conditions: 1 h
Liver microsome [3] = test: Drug metabolism in human liver microsomes assessed as 2-Fluoro-4-(8-fluoro-3-(hydroxy(quinolin-6-yl)methyl)imidazo[1,2-a]pyridin-6-yl)-N-methylbenzamide metabolite formation after 60 mins by UPLC/Q-TOF MS/MS analysis; assay type: ADME; conditions: 1 h
[4] = Drug metabolism in monkey liver microsomes assessed as 2-Fluoro-4-(8-fluoro-3-(hydroxy(quinolin-6-yl)methyl)imidazo[1,2-a]pyridin-6-yl)-N-methylbenzamide metabolite formation after 60 mins by UPLC/Q-TOF MS/MS analysis; assay type: ADME, Macaca mulatta; conditions: rhesus monkey, 1 h
Liver microsome [5] = test: Drug formation in Sprague-Dawley rat liver microsomes treated with 2-Fluoro-4-(8-fluoro-3-(quinolin-6-ylmethyl)imidazo[1,2-a]pyridin-6-yl)-N-methylbenzamide after 60 mins by UPLC/Q-TOF MS/MS analysis; assay type: ADME; conditions: 1 h
[6] = target: Voltage-gated inwardly rectifying potassium channel KCNH2 (Homo sapiens, UniProt Q12809); test: Inhibition of human ERG channel
Sequence of Voltage-gated inwardly rectifying potassium channel KCNH2 (Q12809 whole entry): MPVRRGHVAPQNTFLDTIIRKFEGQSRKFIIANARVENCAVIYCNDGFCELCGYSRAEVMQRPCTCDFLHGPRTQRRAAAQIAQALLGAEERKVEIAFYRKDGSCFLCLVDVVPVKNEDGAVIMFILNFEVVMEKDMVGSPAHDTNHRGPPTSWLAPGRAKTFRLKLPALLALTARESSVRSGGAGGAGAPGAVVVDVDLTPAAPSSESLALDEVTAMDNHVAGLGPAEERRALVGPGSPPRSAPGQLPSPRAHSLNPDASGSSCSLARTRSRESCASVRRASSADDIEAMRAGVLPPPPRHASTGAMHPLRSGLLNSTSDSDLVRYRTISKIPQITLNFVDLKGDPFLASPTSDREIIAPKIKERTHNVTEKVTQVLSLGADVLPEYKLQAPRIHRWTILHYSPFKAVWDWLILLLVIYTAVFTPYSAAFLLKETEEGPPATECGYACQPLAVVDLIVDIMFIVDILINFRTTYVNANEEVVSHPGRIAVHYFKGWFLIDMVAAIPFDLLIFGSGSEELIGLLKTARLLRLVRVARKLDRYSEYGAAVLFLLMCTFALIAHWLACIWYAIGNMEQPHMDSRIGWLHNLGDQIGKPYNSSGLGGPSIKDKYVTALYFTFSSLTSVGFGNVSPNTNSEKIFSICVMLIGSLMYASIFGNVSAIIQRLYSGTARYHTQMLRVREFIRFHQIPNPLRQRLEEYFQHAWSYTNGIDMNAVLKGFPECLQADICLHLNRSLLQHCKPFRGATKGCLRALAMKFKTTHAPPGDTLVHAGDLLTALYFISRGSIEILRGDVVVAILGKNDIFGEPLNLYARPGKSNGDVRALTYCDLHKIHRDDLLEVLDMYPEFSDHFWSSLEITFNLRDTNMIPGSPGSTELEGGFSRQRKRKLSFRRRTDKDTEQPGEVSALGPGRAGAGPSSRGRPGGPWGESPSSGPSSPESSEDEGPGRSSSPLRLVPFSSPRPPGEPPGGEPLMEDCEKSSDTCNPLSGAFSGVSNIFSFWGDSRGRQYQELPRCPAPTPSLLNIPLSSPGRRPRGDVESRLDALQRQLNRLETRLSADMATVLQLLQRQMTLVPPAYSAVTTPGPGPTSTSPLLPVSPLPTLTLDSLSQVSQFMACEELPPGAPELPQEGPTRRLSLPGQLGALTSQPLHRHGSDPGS

EBC-1 [7] = test: Antitumor activity against human EBC1 cells xenografted in po dosed mouse assessed as tumor growth inhibition treated for 3 weeks; assay type: functional, organism-based
[8] = Antitumor activity against human EBC1 cells xenografted in mouse assessed as tumor growth inhibition treated at 100 mg/kg, po for 3 weeks; assay type: functional; conditions: EBC-1, po, 504 h
[9] = Antitumor activity against human EBC1 cells xenografted in mouse assessed as tumor growth inhibition treated at 50 mg/kg, po for 3 weeks; assay type: functional; conditions: EBC-1, po, 504 h, read-out: INH
Mus musculus = test: Toxicity in human EBC1 cells xenografted in mouse assessed as weight losses treated at 50 to 100 mg/kg, po for 3 weeks; assay type: organism-based; conditions: in vivo, 504 h
[10] = Antiproliferative activity against human BGC823 cells after 72 hrs; assay type: functional, cell-based; conditions: BGC-823, 72 h
MGC-803 = test: Antiproliferative activity against human MGC803 cells after 72 hrs; assay type: functional, cell-based; conditions: MGC-803, 72 h
[11] = Antiproliferative activity against human SPCA1 cells after 72 hrs; assay type: functional, cell-based; conditions: SPCA1, 72 h
[12] = Antiproliferative activity against human SPCA4 cells after 72 hrs; assay type: functional, cell-based; conditions: SPC-A4, 72 h
[13] = Antiproliferative activity against human Calu3 cells after 72 hrs; assay type: functional, cell-based; conditions: Calu-3, 72 h
[14] = Antiproliferative activity against human SGC7901 cells after 72 hrs; assay type: functional, cell-based; conditions: SGC-7901, 72 h
[15] = Antiproliferative activity against human MKN74 cells after 72 hrs; assay type: functional, cell-based; conditions: MKN-74, 72 h
[16] = Antiproliferative activity against human MKN1 cells after 72 hrs; assay type: functional, cell-based; conditions: MKN-1, 72 h
HT-29 = test: Antiproliferative activity against human HT-29 cells after 72 hrs; assay type: functional, cell-based; conditions: HT-29, 72 h
AGS = test: Antiproliferative activity against human AGS cells after 72 hrs; assay type: functional, cell-based
[17] = Antiproliferative activity against human SNU16 cells after 72 hrs; assay type: functional, cell-based; conditions: SNU-16, 72 h
SNU1 = test: Antiproliferative activity against human SNU1 cells after 72 hrs; assay type: functional, cell-based; conditions: SNU1, 72 h
A549 = test: Antiproliferative activity against human A549 cells after 72 hrs; assay type: functional, cell-based; conditions: A549, 72 h
[18] = Antiproliferative activity against human EBC1 cells after 72 hrs; conditions: EBC-1, 72 h
[19] = target: Tyrosine-protein kinase receptor UFO (Homo sapiens, UniProt P30530); test: Inhibition of Axl (unknown origin) using polu (Glu,Tyr)4:1 substrate after 30 mins incubation by multi-well spectrophotometry
Sequence of Tyrosine-protein kinase receptor UFO (P30530 whole entry): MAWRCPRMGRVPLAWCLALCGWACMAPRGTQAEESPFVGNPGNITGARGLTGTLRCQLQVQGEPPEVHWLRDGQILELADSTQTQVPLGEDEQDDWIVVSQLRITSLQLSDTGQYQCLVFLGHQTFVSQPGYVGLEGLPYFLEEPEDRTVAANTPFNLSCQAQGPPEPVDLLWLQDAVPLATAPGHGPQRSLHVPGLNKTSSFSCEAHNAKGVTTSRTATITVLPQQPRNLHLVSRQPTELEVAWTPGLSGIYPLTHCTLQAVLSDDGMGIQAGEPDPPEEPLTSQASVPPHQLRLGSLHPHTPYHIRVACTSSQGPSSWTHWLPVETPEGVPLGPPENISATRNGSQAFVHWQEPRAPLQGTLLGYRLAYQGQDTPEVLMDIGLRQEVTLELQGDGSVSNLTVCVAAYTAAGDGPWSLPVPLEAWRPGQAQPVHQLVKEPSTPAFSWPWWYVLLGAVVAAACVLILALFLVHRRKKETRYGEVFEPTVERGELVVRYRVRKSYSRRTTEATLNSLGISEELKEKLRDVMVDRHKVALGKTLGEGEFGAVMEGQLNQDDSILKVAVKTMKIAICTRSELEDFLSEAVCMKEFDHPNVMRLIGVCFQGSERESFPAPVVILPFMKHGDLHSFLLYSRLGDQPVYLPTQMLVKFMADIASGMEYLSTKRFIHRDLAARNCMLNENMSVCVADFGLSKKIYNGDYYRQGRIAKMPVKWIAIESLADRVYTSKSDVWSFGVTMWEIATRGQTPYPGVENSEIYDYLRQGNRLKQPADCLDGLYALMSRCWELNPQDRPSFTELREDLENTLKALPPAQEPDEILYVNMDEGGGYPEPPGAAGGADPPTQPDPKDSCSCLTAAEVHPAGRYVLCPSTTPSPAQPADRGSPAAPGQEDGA

[20] = target: Tyrosine-protein kinase Mer (Homo sapiens, UniProt Q12866); test: Inhibition of Mer (unknown origin) using polu (Glu,Tyr)4:1 substrate after 30 mins incubation by multi-well spectrophotometry
Sequence of Tyrosine-protein kinase Mer (Q12866 whole entry): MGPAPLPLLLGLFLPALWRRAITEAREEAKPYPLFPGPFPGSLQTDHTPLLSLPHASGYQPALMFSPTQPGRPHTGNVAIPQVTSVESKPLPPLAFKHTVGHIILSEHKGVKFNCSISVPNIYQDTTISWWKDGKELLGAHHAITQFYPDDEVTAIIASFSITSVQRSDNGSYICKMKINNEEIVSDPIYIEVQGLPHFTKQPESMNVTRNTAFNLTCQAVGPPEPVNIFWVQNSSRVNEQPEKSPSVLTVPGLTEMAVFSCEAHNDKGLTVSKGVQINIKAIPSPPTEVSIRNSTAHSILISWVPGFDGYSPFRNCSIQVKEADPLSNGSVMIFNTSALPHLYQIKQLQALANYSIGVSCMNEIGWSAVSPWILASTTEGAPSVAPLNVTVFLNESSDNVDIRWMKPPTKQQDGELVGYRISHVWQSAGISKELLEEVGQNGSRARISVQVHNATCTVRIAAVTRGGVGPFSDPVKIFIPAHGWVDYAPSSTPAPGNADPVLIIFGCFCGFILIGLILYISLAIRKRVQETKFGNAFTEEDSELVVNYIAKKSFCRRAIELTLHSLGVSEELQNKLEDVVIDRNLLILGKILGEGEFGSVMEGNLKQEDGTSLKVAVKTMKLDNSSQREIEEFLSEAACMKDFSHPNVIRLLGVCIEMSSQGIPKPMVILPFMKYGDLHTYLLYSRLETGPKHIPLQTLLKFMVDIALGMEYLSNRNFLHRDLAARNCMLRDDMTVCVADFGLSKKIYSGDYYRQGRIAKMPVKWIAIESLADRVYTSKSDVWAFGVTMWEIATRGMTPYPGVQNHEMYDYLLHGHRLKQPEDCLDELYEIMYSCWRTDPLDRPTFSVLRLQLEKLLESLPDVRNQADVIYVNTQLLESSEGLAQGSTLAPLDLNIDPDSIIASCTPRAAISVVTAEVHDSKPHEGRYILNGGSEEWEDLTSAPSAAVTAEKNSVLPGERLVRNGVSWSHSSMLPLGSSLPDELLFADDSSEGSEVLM

[21] = target: Tyrosine-protein kinase receptor TYRO3 (Homo sapiens, UniProt Q06418); test: Inhibition of Tyro3 (unknown origin) using polu (Glu,Tyr)4:1 substrate after 30 mins incubation by multi-well spectrophotometry
Sequence of Tyrosine-protein kinase receptor TYRO3 (Q06418 whole entry): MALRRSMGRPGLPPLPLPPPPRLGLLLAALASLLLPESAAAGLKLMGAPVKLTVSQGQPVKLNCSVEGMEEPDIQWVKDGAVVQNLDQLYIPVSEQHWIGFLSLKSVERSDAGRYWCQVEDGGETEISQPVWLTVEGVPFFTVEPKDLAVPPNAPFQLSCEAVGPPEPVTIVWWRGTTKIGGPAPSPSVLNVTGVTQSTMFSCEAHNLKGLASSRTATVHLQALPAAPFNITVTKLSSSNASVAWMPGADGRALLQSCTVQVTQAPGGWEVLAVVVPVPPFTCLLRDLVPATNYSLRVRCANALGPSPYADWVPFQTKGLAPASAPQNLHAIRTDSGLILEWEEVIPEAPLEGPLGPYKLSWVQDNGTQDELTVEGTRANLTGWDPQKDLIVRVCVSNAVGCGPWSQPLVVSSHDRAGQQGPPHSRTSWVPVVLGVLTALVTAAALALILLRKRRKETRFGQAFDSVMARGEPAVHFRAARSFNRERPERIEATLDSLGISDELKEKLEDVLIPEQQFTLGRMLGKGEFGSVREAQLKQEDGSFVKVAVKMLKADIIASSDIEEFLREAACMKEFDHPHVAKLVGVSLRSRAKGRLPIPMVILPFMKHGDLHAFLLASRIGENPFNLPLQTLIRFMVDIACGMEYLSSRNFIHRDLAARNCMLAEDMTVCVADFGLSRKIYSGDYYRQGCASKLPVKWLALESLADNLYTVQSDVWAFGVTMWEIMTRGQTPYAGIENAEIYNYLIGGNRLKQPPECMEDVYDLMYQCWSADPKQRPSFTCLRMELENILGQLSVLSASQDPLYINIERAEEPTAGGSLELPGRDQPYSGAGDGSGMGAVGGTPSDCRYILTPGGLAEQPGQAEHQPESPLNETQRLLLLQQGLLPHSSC

[22] = Antiproliferative activity against human MKN45 cells after 72 hrs; assay type: functional, cell-based; conditions: MKN-45, 72 h
[23] = Antiproliferative activity against human SNU5 cells after 72 hrs; assay type: functional, cell-based; conditions: SNU-5, 72 h
BaF3 = test: Antiproliferative activity against mouse BAF3/TPR-Met cells after 72 hrs; assay type: functional, cell-based; conditions: BaF3, 72 h
EBC-1 [24] = test: Induction of cell cycle arrest in human EBC1 cells assessed as cell accumulation at G1/S phase at 1 uM after 24 hrs by FACS analysis; assay type: functional, cell-based
EBC-1 [25] = test: Induction of cell cycle arrest in human EBC1 cells assessed as cell accumulation at G1 phase at 1 uM after 24 hrs by FACS analysis (reference value: 52.95%); assay type: functional
NCI-H441 [26] = test: Inhibition of HGF-induced human NCI-H441 cell migration at 500 nM after 24 hrs by spectrophotometry; assay type: functional, cell-based
NCI-H441 [27] = test: Inhibition of HGF-induced human NCI-H441 cell invasion at 500 nM after 24 hrs by spectrophotometry; assay type: functional, cell-based
MDCK = test: Reduction in HGF-induced cell scattering of MDCK cells after 24 hrs by microscopy; assay type: functional, cell-based; conditions: Canis lupus familiaris
[28] = Half life in Sprague-Dawley rat at 10 mg/kg, iv; assay type: ADME, organism-based; conditions: in vivo
[29] = Oral bioavailability in Sprague-Dawley rat at 20 mg/kg; assay type: ADME, organism-based; conditions: in vivo
[30] = Drug metabolism in CD1 mouse liver microsomes assessed as 2-Fluoro-4-(8-fluoro-3-(hydroxy(quinolin-6-yl)methyl)imidazo[1,2-a]pyridin-6-yl)-N-methylbenzamide metabolite formation after 60 mins by UPLC/Q-TOF MS/MS analysis; assay type: ADME; conditions: 1 h
NCI-H520 = test: Antiproliferative activity against human NCI-H520 cells after 72 hrs; assay type: functional, cell-based; conditions: NCI-H520, 72 h
NCI-H1975 = test: Antiproliferative activity against human NCI-H1975 cells after 72 hrs; assay type: functional, cell-based; conditions: NCI-H1975, 72 h
NCI-H1650 = test: Antiproliferative activity against human NCI-H1650 cells after 72 hrs; assay type: functional, cell-based; conditions: NCI-H1650, 72 h
NCI-H1299 = test: Antiproliferative activity against human NCI-H1299 cells after 72 hrs; assay type: functional, cell-based; conditions: NCI-H1299, 72 h
NCI-H596 = test: Antiproliferative activity against human NCI-H596 cells after 72 hrs; assay type: functional, cell-based; conditions: NCI-H596, 72 h
NCI-H226 = test: Antiproliferative activity against human NCI-H226 cells after 72 hrs; assay type: functional, cell-based; conditions: NCI-H226, 72 h
NCI-H292 = test: Antiproliferative activity against human NCI-H292 cells after 72 hrs; assay type: functional, cell-based; conditions: NCI-H292, 72 h
NCI-H23 = test: Antiproliferative activity against human NCI-H23 cells after 72 hrs; assay type: functional, cell-based; conditions: NCI-H23, 72 h
NCI-H358 = test: Antiproliferative activity against human NCI-H358 cells after 72 hrs; assay type: functional, cell-based; conditions: NCI-H358, 72 h
NCI-H661 = test: Antiproliferative activity against human NCI-H661 cells after 72 hrs; assay type: functional, cell-based; conditions: NCI-H661, 72 h

CNC(=O)c1ccc(-c2cc(F)c3ncc(Cc4ccc5ncccc5c4)n3c2)cc1F
Drug metabolism (Liver microsome [1]): metabolite_notdetected | Drug metabolism (Liver microsome [2]): metabolite_detected | Drug metabolism (Liver microsome [3]): metabolite_detected | Drug metabolism [4]: metabolite_detected | Drug metabolism (Liver microsome [5]): metabolite_notdetected | pIC50 [6]: 4.03 | TGI (EBC-1 [7]): Dose-dependent effect | inhibition in vivo at 100 mg/kg [8]: 75% | inhibition in vivo at 50 mg/kg [9]: 62.9% | Activity (Mus musculus): Non-toxic | pIC50 [10]: < 4.30 | pIC50 (MGC-803): < 4.30 | pIC50 [11]: < 4.30 | pIC50 [12]: < 4.30 | pIC50 [13]: < 4.30 | pIC50 [14]: < 4.30 | pIC50 [15]: < 4.30 | pIC50 [16]: < 4.30 | pIC50 (HT-29): < 4.30 | pIC50 (AGS): < 4.30 | pIC50 [17]: < 4.30 | pIC50 (SNU1): < 4.30 | pIC50 (A549): < 4.30 | pIC50 [18]: 7.35 | pIC50 [19]: < 5.00 | pIC50 [20]: < 5.00 | pIC50 [21]: < 5.00 | pIC50 [22]: 7.04 | pIC50 [23]: 7.15 | pIC50 (BaF3): 6.69 | Activity (EBC-1 [24]): Active | Activity (EBC-1 [25]): 81.84% | inhibition (NCI-H441 [26]): Active | inhibition (NCI-H441 [27]): Active | inhibition (MDCK): Dose-dependent effect | half-life [28]: 1.17 h | bioavailability [29]: 29.4% | Drug metabolism [30]: metabolite_detected | pIC50 (NCI-H520): < 4.30 | pIC50 (NCI-H1975): < 4.30 | pIC50 (NCI-H1650): < 4.30 | pIC50 (NCI-H1299): < 4.30 | pIC50 (NCI-H596): < 4.30 | pIC50 (NCI-H226): < 4.30 | pIC50 (NCI-H292): < 4.30 | pIC50 (NCI-H23): < 4.30 | pIC50 (NCI-H358): < 4.30 | pIC50 (NCI-H661): < 4.30
